Data on eight substances can be found in patent publication US20240325533A1, “MODIFIED IMMUNE CELLS AND METHODS OF USING THE SAME” (Beam Therapeutics Inc., priority 2021, published 2024).

In one data set the test system is EGFR-specific CAR. As to the kind of experiment: CAR expression by flow cytometry after editing (anti-idiotype antibody staining). It counts as cell-based, human. The text has this: FIGS. 4A-4C provide flow cytometry graphs and bar graphs. FIGS. 4A and 4B depict CAR expression after editing A2A, HIF1α, and A2B target sites in CAR-T cells using guides. FIG. 4A provides flow cytometry graphs depicting CAR expression controls for electroporation (EP) only and untransduced (UTD) CAR-T cells. FIG. 4B are flow cytometry graphs depicting CAR expression of edited A2AR target sites using guides g145, g155, and Cas9 (top), edited HIF1α target sites using guides g168, g170, and g173 (middle), and edited A2B target sites using guides g221, g222, and Cas9 (bottom). FIG. 4C is a bar graph quantifying the CAR expression observed in the flow cytometry graphs of FIG. 4B. Consistent 60% CAR expression was seen across all guides and editing targets. There was no observed impact of editing on CAR expression.
FIG. 19A provides a bar graph showing base editing of the ADORA2A gene quantified via next generation sequencing (NGS). […] FIG. 19D provides a schematic providing an overview of a process for generating multiplex base edited EGFR-targeting ARC T cells. In FIG. 19B, each set of three bars correspond to, from left-to-right, TCR, HLA Class I, and HLA Class II. In FIGS. 19A-19D, “Base Editing Guide 1” […] indicates cells edited using the base editor ABE8.20 in combination with the guide sgRNA145 (see Table 1A), “Base Editing Guide 2” (BE2) indicates cells edited using the base editor ABE8.20 in combination with the guide sgRNA155, and “CRISPR Guide” indicates cells edited using a CRISPR guide and editor known to be effective in knocking out expression of A2AR.
FIG. 25 provides a set of flow cytometry scatter plots showing chimeric antigen receptor expression in EGFR-targeting CAR-T cells edited to knock out expression of the indicated polypeptides (i.e., A2AR, PD1, TGFbRII, or combinations thereof). At the end of culturing, T cells were stained with an anti-idiotype antibody. […] was knocked out using the guide TSBTx2043, PD1 expression was knocked out using the guide TSBTx025, TGFbR expression was knocked out using the guide TSBTx5277, and “Triple KO” cells were editing using all three guides (see Table 1B).

In the next data set the test system is SKOV3 or H226 cells. The data set can be described thus: IFNγ production of EGFR CAR-Ts with HIF1α edits co-cultured with tumor cells in 1% O2. To be noted: 1 to 1 E:T ratio, 1% O2, 48 hours, vs unedited EGFR CAR-T cells, FIG. 10. Format: cell-based. As for the experimental part:
FIG. 10 provides bar graphs depicting IFNγ production (pg/mL) after EGFR CAR-Ts with HIF1α edits were co-cultured at 1 to 1 E:T ratio with either SKOV3 or H226 cells in 1% O2 for 48 hours. HIF1α was edited using guides g170 and g173. Electroporation (EP) only was used as a control. EGFR CAR-T cells with HIF1α knockout edits produced more cytokine under hypoxic stress than unedited EGFR CAR-T cells.

The subject of another data set is pCREB. The data set can be described thus: pCREB expression (flow cytometry) in A2AR knockout T cells treated with CADO. To be noted: 30 μM CADO vs DMSO, FIG. 14. Format: cell-based. How it is done:
FIG. 14 provides histograms depicting expression of pCREB in A2AR knockout T cells using guides g145 and g155. Cas9 and Electroporation (EP) only were used as controls. In the plots, the darker-grey histogram corresponds to DMSO and the lighter-grey histogram corresponds to 30 μM CADO. […] Throughout the figures, the term “CADO” represents 2-chloroadenosine.
FIGS. 20A-20E provide flow cytometry histograms, bar graphs, a plot, and images showing adenosine-resistant CAR-T cells (CAR-T cells) were protected from adenosine-mediated suppression in vitro. […] H266 cells expressing GFP were plated in ultra-low adherent 96-well plates and incubated at 36° C. for 3 days to allow for spheroid formation. Then, untransduced cells (UTD), ARC T cells, or CAR T cells expressing TCR, HLA Class I, HLA Class II, and ADAR were added to the wells at a 1:2 effector to target ratio (E:T) with 0 μM adenosine. Plates were then placed in an Incucyte live imaging analysis instrument and cytotoxicity was measured via reduction in GFP+ spheroid volume over time. […]
For orientation: Flow cytometry measures light scatter and fluorescence of single cells or particles in a stream.

In another data set the test system is IFNγ production. The data set can be described thus: IFNγ production of A2AR knockout T cells in the presence of CADO / extracellular adenosine. As to conditions: normalized to 0 μM CADO (DMSO only), FIG. 15. It counts as cell-based. As for the experimental part: FIG. 15 presents bar graphs depicting IFNγ production after 48 hours in A2AR knockout T cells using guides g145 and g155. The data shown in FIG. 15 is normalized to IFNγ production in 0 μM CADO (DMSO only treatment). A2A knockout protected CAR-T cells from adenosine-mediated cytokine suppression.
FIGS. 20A-20E provide flow cytometry histograms, bar graphs, a plot, and images showing adenosine-resistant CAR-T cells (CAR-T cells) were protected from adenosine-mediated suppression in vitro. […] H266 cells expressing GFP were plated in ultra-low adherent 96-well plates and incubated at 36° C. for 3 days to allow for spheroid formation. Then, untransduced cells (UTD), ARC T cells, or CAR T cells expressing TCR, HLA Class I, HLA Class II, and ADAR were added to the wells at a 1:2 effector to target ratio (E:T) with 0 μM adenosine. Plates were then placed in an Incucyte live imaging analysis instrument and cytotoxicity was measured via reduction in GFP+ spheroid volume over time. In FIGS. 19A-19D, “BE KO1” indicates cells edited using the base editor ABE8.20 in combination with the guide sgRNA145 (see Table 1A), “BE KO2” indicates cells edited using the base editor ABE8.20 in combination with the guide sgRNA155, and “CRISPR KO” indicates cells edited using a CRISPR guide and editor known to be effective in knocking out expression of A2AR.

Where [1] appears, read: after editing A2A, HIF1α, and A2B target sites in CAR-T cells, FIG. 4C.

Regarding “ACACAGGUAUUGCACUGCAC (chemistry not given here) [sgRNA170, guide RNA spacer; HIF1α; ABE; Ex6 SA (Pos 5)]”, the CAR expression with EGFR-specific CAR (setting [1]) is listed as 60%. The IFNγ production result in the data set with SKOV3 or H226 cells is “more cytokine”.
As to “CUGCUCACCGGAGCGGGAUG (chemistry not given here) [sgRNA145, guide RNA spacer; A2AR; CBE; Ex1 SD (Pos 8)]”, the “upregulation of downstream pCREB” value in the data set on pCREB is “no upregulation”. Moreover, in the data set with IFNγ production, the “IFNγ production after 48 hours (adenosine-mediated cytokine suppression)” value is “protected”. The CAR expression with EGFR-specific CAR (setting [1]) turned out to be 60%.
Regarding “GGCCAUGCUGCUGGAGACAC (chemistry not given here) [sgRNA221, guide RNA spacer; A2BR; ABE; Ex1 START (Pos 5)]”, in the data set with EGFR-specific CAR (setting [1]), the CAR expression turned out to be 60%.
“TSBTx5277: guide used with Cas12b to knock out TGFbR2 (guide CCCAGAGCACCAGAGCCAUGGA; listed as RNA, chemistry not given here)”: the CAR expression result in the data set on EGFR-specific CAR (EGFR-targeting CAR-T cells with A2AR, PD1, TGFbRII knock-out or combinations, anti-idiotype antibody, FIG. 25) was “No differences”.
Turning to “UCACCUGAGCGGGACACAGA (chemistry not given here) [sgRNA222, guide RNA spacer; A2BR; Ex1 SD (Pos 4); used with CBE]”, the CAR expression in the data set with EGFR-specific CAR (setting [1]) came out at 60%.
As for “UCUCCCCAGGUACAAUGGCU (chemistry not given here) [sgRNA155, guide RNA spacer; A2AR; ABE (ABE8.20); Ex2 SA (Pos 8)]”, the “upregulation of downstream pCREB” value with pCREB is given as “no upregulation”. For the same substance, the “IFNγ production after 48 hours (adenosine-mediated cytokine suppression)” value in the data set with IFNγ production is “protected”. The CAR expression with EGFR-specific CAR (setting [1]) was 60%.
With “UGUUUACAGUUUGAACUAAC (chemistry not given here) [sgRNA168, guide RNA spacer; HIF1α; ABE; Ex4 SA (Pos 8)]”, the CAR expression in the data set on EGFR-specific CAR (setting [1]) came out at 60%.
For the substance “UUUCAGAACUACAGUUCCUG (chemistry not given here) [sgRNA173, guide RNA spacer; HIF1α; ABE (ABE8.20); Ex13 SA (Pos 5)]”, in the data set on EGFR-specific CAR (setting [1]), the CAR expression is 60%. In addition, in the data set on SKOV3 or H226 cells, the IFNγ production result is “more cytokine”.
